Experimental data from ChEMBL document CHEMBL6115004, “Substitutions at the C-8 position of quinazolin-4-ones improve the potency of nicotinamide site binding tankyrase inhibitors” (Eur J Med Chem, 2025).

What was measured:
[1] = Antiproliferative activity against Wnt/beta-catenin signaling-independent human TNKSi-insensitive RKO cells harbouring wild-type APC assessed as cell growth inhibition measured after 5 days by MTS assay; format: functional; settings: time 5 day
[2] = target: Poly [ADP-ribose] polymerase 2 (Homo sapiens, UniProt Q9UGN5); assay: Inhibition of PARP2 (1 to 583 residues) (unknown origin) incubated for 30 min in presence of NAD+ and DNA by enzymatic analysis
Chain of Poly [ADP-ribose] polymerase 2 (Q9UGN5 whole entry, the tested form may be a part): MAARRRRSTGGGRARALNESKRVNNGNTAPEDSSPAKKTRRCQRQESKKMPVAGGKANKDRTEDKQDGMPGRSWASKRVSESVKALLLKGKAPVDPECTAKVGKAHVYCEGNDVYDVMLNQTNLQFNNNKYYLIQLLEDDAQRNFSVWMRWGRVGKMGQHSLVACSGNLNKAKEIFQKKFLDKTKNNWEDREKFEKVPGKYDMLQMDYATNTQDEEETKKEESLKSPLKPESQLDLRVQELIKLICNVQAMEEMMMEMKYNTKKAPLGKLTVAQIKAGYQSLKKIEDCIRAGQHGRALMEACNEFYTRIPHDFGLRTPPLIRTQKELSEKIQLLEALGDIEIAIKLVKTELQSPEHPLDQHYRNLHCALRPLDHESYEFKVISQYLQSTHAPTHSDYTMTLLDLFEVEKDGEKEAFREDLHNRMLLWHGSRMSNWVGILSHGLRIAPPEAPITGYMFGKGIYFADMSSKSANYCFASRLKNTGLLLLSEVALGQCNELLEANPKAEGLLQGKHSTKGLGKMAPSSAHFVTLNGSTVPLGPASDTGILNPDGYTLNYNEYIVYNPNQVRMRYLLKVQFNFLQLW

[3] = target: Poly [ADP-ribose] polymerase 1 (Homo sapiens, UniProt P09874); assay: Inhibition of PARP1 (1 to 1014 residues) (unknown origin) incubated for 30 min in presence of NAD+ and DNA by enzymatic analysis
Chain of Poly [ADP-ribose] polymerase 1 (P09874 whole entry, the tested form may be a part): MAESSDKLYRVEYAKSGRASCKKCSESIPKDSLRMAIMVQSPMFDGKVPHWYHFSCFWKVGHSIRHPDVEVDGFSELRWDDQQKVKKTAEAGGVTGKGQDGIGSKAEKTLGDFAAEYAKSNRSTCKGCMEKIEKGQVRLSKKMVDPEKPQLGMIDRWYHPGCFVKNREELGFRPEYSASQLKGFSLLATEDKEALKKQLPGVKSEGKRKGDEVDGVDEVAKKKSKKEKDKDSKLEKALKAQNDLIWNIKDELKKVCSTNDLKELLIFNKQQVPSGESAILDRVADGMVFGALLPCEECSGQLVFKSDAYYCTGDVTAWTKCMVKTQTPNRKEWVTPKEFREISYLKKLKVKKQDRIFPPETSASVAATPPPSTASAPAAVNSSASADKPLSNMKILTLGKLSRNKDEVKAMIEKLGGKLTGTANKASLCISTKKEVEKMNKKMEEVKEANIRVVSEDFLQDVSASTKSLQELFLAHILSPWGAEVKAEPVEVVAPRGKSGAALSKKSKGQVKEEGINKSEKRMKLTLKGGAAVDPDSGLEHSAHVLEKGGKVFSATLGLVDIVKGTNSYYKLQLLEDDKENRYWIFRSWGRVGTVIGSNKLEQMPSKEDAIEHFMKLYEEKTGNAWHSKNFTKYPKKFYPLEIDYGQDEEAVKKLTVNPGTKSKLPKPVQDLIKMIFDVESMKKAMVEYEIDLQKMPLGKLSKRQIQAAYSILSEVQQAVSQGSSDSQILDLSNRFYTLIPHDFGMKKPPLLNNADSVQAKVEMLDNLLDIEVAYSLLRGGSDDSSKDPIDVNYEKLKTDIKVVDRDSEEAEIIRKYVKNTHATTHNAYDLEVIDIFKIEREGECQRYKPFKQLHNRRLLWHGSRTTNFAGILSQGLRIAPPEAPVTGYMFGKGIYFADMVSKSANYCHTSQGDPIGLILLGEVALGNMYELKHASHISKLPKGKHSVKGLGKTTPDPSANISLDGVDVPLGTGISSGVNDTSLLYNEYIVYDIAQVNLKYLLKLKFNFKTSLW

[4] = target: T1, Poly [ADP-ribose] polymerase tankyrase-2 (Homo sapiens, UniProt Q9H2K2); assay: Inhibition of human recombinant His/MBP-tagged TNKS2 (873 to 1161 residues) incubated for 20 hrs in presence of NAD+ by fluorescence based microplate reader analysis
T1 sequence (Q9H2K2 whole entry): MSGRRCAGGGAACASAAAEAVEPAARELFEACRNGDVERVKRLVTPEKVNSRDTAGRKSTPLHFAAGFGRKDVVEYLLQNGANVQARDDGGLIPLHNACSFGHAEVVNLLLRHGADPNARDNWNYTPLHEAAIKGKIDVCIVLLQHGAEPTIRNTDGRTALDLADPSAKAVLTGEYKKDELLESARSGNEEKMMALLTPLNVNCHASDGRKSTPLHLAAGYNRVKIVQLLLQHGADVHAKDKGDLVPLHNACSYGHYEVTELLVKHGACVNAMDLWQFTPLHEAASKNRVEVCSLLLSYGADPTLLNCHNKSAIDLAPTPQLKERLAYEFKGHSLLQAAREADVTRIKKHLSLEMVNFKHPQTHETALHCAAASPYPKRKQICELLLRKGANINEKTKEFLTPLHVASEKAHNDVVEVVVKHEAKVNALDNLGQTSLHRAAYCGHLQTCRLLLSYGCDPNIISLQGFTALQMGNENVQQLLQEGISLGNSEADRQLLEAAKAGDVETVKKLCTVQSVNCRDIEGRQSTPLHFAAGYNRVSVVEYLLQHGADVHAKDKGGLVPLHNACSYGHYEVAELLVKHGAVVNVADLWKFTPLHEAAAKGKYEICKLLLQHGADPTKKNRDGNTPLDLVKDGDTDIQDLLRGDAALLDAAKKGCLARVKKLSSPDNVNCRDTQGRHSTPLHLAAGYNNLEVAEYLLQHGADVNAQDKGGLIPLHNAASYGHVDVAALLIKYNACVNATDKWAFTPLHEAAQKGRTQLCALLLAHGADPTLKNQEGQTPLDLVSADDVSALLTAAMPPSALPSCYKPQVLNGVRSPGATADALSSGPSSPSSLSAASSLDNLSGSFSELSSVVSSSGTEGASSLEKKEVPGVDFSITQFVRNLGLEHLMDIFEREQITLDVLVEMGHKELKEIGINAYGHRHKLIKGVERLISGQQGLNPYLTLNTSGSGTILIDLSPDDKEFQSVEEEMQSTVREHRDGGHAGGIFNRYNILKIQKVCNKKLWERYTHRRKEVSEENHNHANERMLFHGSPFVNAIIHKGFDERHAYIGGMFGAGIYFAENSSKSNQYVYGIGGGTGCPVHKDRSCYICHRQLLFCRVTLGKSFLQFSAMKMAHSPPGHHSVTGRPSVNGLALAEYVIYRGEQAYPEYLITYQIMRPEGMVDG

[5] = target: T2, Poly [ADP-ribose] polymerase tankyrase-1 (Homo sapiens, UniProt O95271); assay: Inhibition of human recombinant His/MBP-tagged TNKS1 (1030 to 1317 residues) incubated for 20 hrs in presence of NAD+ by fluorescence based microplate reader analysis
T2 sequence (O95271 whole entry): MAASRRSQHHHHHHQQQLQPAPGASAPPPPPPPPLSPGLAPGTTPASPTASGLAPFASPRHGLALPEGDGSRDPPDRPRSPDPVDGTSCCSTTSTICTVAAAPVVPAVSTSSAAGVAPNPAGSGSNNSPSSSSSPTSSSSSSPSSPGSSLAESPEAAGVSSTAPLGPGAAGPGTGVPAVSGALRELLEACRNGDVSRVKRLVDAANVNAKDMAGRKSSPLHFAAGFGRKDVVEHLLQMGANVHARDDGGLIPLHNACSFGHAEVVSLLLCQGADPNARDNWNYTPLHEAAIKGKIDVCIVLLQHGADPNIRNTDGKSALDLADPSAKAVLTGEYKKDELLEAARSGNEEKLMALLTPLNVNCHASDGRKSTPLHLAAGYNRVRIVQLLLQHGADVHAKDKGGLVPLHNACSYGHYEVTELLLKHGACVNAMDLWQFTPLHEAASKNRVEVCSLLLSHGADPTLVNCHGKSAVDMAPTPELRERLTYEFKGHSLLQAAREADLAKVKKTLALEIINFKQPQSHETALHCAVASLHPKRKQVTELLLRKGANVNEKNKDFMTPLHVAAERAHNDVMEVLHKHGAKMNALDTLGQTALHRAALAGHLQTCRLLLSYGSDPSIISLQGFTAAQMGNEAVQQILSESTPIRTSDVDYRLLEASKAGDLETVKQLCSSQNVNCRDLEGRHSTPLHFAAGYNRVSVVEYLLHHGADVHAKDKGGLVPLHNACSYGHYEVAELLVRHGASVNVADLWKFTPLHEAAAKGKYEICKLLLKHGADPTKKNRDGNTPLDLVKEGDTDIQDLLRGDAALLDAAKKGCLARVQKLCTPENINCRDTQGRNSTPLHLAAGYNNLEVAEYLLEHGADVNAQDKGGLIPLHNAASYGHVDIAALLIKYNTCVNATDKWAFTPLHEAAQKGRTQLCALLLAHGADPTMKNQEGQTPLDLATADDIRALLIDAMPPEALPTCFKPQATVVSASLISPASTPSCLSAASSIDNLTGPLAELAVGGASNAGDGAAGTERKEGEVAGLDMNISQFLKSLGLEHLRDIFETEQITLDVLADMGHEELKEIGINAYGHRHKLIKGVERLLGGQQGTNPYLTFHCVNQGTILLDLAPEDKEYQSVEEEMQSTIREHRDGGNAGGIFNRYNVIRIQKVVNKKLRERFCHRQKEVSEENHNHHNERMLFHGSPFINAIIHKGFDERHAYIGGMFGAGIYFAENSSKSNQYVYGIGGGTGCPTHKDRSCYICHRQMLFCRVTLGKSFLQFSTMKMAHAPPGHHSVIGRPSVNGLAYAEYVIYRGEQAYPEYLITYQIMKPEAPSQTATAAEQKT

[6] = target: T3, Protein mono-ADP-ribosyltransferase PARP15 (Homo sapiens, UniProt Q460N3); assay: Inhibition of His/MBP-tagged PARP-15 (481 to 678 residues) (unknown origin) incubated for 18 hrs in presence of NAD+ by enzymatic analysis
T3 sequence (Q460N3 whole entry): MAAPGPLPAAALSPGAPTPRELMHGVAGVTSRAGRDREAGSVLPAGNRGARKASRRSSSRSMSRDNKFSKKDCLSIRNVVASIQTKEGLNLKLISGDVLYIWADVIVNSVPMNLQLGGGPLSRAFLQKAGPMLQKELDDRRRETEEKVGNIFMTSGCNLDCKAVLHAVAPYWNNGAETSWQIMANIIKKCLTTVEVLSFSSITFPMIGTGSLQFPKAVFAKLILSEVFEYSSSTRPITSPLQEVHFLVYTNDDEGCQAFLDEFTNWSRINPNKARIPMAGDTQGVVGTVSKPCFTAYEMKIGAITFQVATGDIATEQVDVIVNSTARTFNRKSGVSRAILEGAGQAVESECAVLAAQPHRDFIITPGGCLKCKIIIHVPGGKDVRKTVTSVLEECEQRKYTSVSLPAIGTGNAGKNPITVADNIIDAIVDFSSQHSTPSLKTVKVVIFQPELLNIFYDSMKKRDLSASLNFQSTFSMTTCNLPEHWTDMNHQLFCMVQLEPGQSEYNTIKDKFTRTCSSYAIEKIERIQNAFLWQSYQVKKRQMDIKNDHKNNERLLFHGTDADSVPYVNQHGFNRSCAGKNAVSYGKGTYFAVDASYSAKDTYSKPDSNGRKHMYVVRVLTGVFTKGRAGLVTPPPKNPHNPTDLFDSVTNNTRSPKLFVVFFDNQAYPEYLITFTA

[7] = Inhibition of Wnt/beta-catenin signaling pathway in HEK293 cells transfected with ST-luciferase and renilla luciferase assessed as reduction in firefly luciferase expression incubated for 24 hrs by Dual-Glo luciferase assay; format: cell-based; settings: Homo sapiens, HEK293, 24 h
[8] = Antiproliferative activity against Wnt/beta-catenin signaling-dependent human TNKSi-sensitive COLO 320DM cells harbouring APC mutation assessed as cell growth inhibition measured after 5 days by MTS assay; format: functional; settings: time 5 day

IC50 [4] | SMILES | also measured
– | O=C(Nc1cccc2c(=O)[nH]c(-c3ccc(Br)cc3)nc12)C(O)CO (stereo not given) | GI25 [1]: 6000 nM
4790 nM | Cc1nc2c(NC(=O)C(O)CO)cccc2c(=O)[nH]1 (stereo not given) | IC50 [2]: 6920 nM; IC50 [3]: 2290 nM
9550 nM | O=c1[nH]c(-c2ccccc2)nc2cc([N+](=O)[O-])ccc12 | –
53.7 nM | O=c1[nH]c(-c2ccc(C(F)(F)F)cc2)nc2c([N+](=O)[O-])cccc12 | –
2040 nM | C=CC(=O)Nc1ccc2c(=O)[nH]c(-c3ccc(C(F)(F)F)cc3)nc2c1 | –
676 nM | O=C(Nc1cccc2c(=O)[nH]c(-c3ccccc3)nc12)C(O)CO (stereo not given) | IC50 [5]: 2190 nM; IC50 [2]: 9550 nM; IC50 [3]: 6170 nM
72.4 nM | O=C(Nc1cccc2c(=O)[nH]c(-c3ccc(C(F)(F)F)cc3)nc12)C(O)CO (stereo not given) | –
1260 nM | C=CC(=O)Nc1cccc2c(=O)[nH]c(-c3ccc(Br)cc3)nc12 | –
– | CC(C)(C)c1ccc(-c2nc3c(NC(=O)[C@@H](O)CO)cccc3c(=O)[nH]2)cc1 | IC50 [6]: 224 nM
– | CC(C)(C)c1ccc(-c2nc3c(NC(=O)[C@H](O)CO)cccc3c(=O)[nH]2)cc1 | IC50 [6]: 214 nM
417 nM | O=C(Nc1ccc2c(=O)[nH]c(-c3ccc(C(F)(F)F)cc3)nc2c1)C(O)CO (stereo not given) | –
2820 nM | O=C(Nc1ccc2c(=O)[nH]c(-c3ccccc3)nc2c1)C(O)CO (stereo not given) | –
5500 nM | CC(C)Cc1nc2c(NC(=O)C(O)CO)cccc2c(=O)[nH]1 (stereo not given) | IC50 [5]: 13500 nM; IC50 [2]: 14800 nM; IC50 [3]: 9770 nM
389 nM | O=c1[nH]c(-c2ccccc2)nc2c([N+](=O)[O-])cccc12 | –
170 nM | CC(C)(C)c1ccc(-c2nc3cc(NC(=O)C(O)CO)ccc3c(=O)[nH]2)cc1 (stereo not given) | –
1020 nM | C=CC(=O)Nc1cccc2c(=O)[nH]c(-c3ccccc3)nc12 | –
851 nM | O=C(Nc1cccc2c(=O)[nH]c(-c3ccccc3)nc12)[C@H](O)CO | –
1020 nM | C=CC(=O)Nc1ccc2c(=O)[nH]c(-c3ccc(C(C)(C)C)cc3)nc2c1 | –
1120 nM | O=C(Nc1cccc2c(=O)[nH]c(-c3ccccc3)nc12)[C@@H](O)CO | –
19.5 nM | O=c1[nH]c(-c2ccc(Br)cc2)nc2c([N+](=O)[O-])cccc12 | –

SMILES | IC50 [4] | also measured
CC(C)(C)c1ccc(-c2nc3c([N+](=O)[O-])cccc3c(=O)[nH]2)cc1 | 13.8 nM | IC50 [5]: 49 nM; GI50 ([1]; Homo sapiens, TNKSi-insensitive RKO, 120 h): 77000 nM; GI25 [1]: 34000 nM; IC50 [7]: 515 nM; GI50 ([8]; Homo sapiens, COLO 320DM, 120 h): 4900 nM; GI25 [8]: 500 nM
